# Measurements taken from patent publication US20070117770A1, “Human ribosomal DNA (rDNA) and ribosomal RNA (rRNA) nucleic acids and uses thereof” (Cylene Pharmaceuticals, Inc., priority 2005, published 2007).
# Key:
# Experiment in all cases: Protein kinase inhibition assay
# Type in all cases: biochemical
# MAPKAP-K2(h) = MAPKAP-K2(h) (Homo sapiens, UniProt P49137); conditions: read-out: percent residual activity of MAPKAP-K2(h)
# Protocol: (§1) Certain compounds were tested for activity in protein kinase inhibition assays. All substrates were dissolved and diluted to working stocks in de-ionized water, apart from histone H1 (10× working stock in 20 mM MOPS pH 7.0), PDKtide (10× working stock in 50 mM Tris pH 7.0) ATF2 (which is typically stored at a 20× working stock in 50 mM Tris pH 7.5, 150 mM NaCl, 0.1 mM EGTA, 0.03% Brij-35, 50% glycerol, 1 mM benzamidine, 0.2 mM PMSF and 0.1% R-mercaptoethanol), KKLNRTLSFAEPG (SEQ ID NO:203) and RRRLSFAEPG (SEQ ID NO:204) (50 mM HEPES pH 7.4) and GGEEEEYFELVKKKK (SEQ ID NO:205) (20 mM MOPS pH 7.0). All kinases were pre-diluted to a 10× working concentration prior to addition into the assay. The composition of the dilution buffer for each kinase is detailed below.
# In a final reaction volume of 25 μl, MAPKAP-K2 (h) (5-10 mU) is incubated with 50 mM Na R-glycerophosphate pH 7.5, 0.1 mM EGTA, 30 μM KKLNRTLSVA (SEQ ID NO:212), 10 mM MgAcetate and [gamma-33P-ATP] (specific activity approx. 500 cpm/pmol, concentration as required). The reaction is initiated by the addition of the MgATP mix. After incubation for 40 minutes at room temperature, the reaction is stopped by the addition of 5 μl of a 3% phosphoric acid solution. […]
# MSK2(h) = MSK2(h) (Homo sapiens, UniProt O75676); conditions: read-out: percent residual activity of MSK2(h)
# Protocol: as §1
# (§2) In a final reaction volume of 25 μl, MSK2 (h) (5-10 mU) is incubated with 8 mM MOPS pH 7.0, 0.2 mM EDTA, 30 μM GRPRTSSFAEGKK (SEQ ID NO:220), 10 mM MgAcetate and [gamma-33P-ATP] (specific activity approx. 500 cpm/pmol, concentration as required). The reaction is initiated by the addition of the MgATP mix. After incubation for 40 minutes at room temperature, the reaction is stopped by the addition of 5 μl of a 3% phosphoric acid solution. 10 μl of the reaction is then spotted onto a P30 filtermat and washed three times for 5 minutes in 75 mM phosphoric acid and once in methanol prior to drying and scintillation counting.
# PKG1β(h) = PKG1β(h) (Homo sapiens, UniProt Q13976); conditions: read-out: percent residual activity of PKG1β(h)
# Protocol: as §1
# In a final reaction volume of 25 μl, PKG1β (h) (5-10 mU) is incubated with 8 mM MOPS pH 7.0, 0.2 mM EDTA, 10 μM cGMP, 200 μM RRRLSFAEPG (SEQ ID NO:223), 10 mM MgAcetate and [gamma-33P-ATP] (specific activity approx. 500 cpm/pmol, concentration as required). The reaction is initiated by the addition of the MgATP mix. After incubation for 40 minutes at room temperature, the reaction is stopped by the addition of 5 μl of a 3% phosphoric acid solution. […]
# RIPK2(h) = RIPK2(h) (Homo sapiens, UniProt O43353); conditions: read-out: percent residual activity of RIPK2(h)
# Protocol: as §1
# as §2, with “RIPK2” for “MSK2”, “0.33 mg/ml myelin basic protein,” for “30 μM GRPRTSSFAEGKK (SEQ ID NO:220),”
# MuSK(h) = MuSK(h) (Homo sapiens, UniProt O15146); conditions: read-out: percent residual activity of MuSK(h)
# Protocol: as §1
# as §2, with “MuSK” for “MSK2”, “5 mM MnCl2, 0.33 mg/ml myelin basic protein,” for “30 μM GRPRTSSFAEGKK (SEQ ID NO:220),”
# CDK2/cyclinE(h) = CDK2/cyclinE(h) (Homo sapiens, UniProt P24941); conditions: read-out: percent residual activity of CDK2/cyclinE(h)
# Protocol: as §1
# as §2, with “CDK2/cyclinE” for “MSK2”, “0.1 mg/ml histone H1,” for “30 μM GRPRTSSFAEGKK (SEQ ID NO:220),”
# PKG1β(h), sequence (Q13976 1-686 isoform Q13976-2): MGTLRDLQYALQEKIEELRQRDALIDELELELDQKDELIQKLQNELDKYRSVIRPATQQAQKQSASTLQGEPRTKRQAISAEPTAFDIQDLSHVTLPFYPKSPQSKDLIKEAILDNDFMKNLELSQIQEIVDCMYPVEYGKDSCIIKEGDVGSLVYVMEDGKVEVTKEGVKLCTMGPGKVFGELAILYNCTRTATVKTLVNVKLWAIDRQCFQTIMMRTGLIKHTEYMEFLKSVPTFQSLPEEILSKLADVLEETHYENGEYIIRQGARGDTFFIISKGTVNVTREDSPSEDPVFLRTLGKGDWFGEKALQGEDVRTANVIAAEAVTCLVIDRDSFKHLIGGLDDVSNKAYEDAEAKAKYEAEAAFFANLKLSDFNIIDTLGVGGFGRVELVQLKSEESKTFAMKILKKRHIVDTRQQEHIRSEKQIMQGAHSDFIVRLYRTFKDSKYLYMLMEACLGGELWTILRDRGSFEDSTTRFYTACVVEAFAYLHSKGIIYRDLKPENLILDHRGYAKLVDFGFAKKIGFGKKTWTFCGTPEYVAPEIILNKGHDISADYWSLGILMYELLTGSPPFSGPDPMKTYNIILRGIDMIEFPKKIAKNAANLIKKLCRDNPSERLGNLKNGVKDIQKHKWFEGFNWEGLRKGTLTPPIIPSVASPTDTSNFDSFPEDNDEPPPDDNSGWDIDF
# MAPKAP-K2(h), sequence (P49137 whole entry): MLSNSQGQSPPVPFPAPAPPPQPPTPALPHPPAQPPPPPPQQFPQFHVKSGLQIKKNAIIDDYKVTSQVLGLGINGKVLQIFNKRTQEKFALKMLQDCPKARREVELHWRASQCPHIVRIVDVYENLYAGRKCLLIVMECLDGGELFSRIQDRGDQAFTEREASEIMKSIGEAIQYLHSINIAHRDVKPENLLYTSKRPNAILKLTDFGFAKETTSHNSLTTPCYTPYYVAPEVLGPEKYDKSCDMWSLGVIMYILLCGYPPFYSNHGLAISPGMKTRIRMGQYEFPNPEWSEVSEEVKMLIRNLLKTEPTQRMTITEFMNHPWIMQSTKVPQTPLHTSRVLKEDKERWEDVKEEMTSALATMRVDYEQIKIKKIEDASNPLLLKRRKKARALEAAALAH
# RIPK2(h), sequence (O43353 whole entry): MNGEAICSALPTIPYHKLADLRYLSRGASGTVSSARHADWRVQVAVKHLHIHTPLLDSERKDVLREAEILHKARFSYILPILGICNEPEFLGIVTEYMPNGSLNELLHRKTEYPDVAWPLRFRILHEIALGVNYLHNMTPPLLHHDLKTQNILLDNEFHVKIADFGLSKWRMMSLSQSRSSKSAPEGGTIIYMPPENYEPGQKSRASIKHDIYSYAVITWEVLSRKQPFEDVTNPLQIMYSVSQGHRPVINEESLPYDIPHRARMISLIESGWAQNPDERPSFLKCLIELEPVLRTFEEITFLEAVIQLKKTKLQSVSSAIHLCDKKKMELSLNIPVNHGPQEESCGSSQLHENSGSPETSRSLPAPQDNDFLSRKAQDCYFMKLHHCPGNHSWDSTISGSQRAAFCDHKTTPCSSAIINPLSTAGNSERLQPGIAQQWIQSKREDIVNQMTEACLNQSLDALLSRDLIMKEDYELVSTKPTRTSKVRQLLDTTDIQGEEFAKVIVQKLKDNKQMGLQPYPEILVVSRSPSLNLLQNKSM
# MSK2(h), sequence (O75676 whole entry): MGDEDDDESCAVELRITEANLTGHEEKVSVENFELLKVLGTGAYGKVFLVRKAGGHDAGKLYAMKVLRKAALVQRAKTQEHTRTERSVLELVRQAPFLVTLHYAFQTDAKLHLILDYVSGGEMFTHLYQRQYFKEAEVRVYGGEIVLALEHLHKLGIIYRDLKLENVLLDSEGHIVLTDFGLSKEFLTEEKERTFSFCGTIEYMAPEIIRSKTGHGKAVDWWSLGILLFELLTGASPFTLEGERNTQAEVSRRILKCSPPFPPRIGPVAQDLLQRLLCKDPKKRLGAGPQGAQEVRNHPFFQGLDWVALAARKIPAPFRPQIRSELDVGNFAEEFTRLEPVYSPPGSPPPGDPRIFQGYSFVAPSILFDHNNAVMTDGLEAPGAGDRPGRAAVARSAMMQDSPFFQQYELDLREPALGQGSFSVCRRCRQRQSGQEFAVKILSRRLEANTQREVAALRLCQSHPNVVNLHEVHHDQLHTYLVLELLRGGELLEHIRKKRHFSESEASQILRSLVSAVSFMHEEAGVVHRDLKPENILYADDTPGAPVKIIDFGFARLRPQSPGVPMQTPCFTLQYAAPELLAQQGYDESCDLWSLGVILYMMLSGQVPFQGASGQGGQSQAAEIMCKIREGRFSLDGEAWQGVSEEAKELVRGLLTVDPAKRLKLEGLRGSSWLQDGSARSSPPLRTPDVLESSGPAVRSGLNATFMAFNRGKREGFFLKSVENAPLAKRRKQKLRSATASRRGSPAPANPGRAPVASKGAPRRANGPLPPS
# MuSK(h), sequence (O15146 24-869): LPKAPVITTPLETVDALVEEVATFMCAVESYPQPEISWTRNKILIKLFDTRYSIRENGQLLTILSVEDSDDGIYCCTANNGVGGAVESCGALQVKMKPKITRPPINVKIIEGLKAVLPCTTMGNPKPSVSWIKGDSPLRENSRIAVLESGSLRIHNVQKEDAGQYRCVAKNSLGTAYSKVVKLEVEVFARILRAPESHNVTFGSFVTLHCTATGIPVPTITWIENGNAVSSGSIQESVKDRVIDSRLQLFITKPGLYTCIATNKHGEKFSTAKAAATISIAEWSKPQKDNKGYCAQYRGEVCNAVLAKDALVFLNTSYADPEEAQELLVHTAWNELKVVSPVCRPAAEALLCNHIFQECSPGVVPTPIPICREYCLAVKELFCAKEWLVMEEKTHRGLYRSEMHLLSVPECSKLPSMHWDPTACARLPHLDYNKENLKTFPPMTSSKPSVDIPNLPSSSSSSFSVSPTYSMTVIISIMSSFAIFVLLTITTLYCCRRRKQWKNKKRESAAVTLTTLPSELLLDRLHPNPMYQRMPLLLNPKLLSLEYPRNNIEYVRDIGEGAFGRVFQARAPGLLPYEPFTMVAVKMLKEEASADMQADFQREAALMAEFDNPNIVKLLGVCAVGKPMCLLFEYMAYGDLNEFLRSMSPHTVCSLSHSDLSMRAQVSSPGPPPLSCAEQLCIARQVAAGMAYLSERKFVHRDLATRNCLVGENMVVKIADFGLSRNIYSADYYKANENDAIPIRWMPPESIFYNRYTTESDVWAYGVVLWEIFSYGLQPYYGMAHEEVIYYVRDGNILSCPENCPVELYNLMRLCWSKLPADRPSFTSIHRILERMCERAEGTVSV
remaining activity at 2.5 µM (MAPKAP-K2(h)) [%],remaining activity at 2.5 µM (MSK2(h)) [%],remaining activity at 2.5 µM (PKG1β(h)) [%],remaining activity at 2.5 µM (RIPK2(h)) [%],remaining activity at 2.5 µM (MuSK(h)) [%],remaining activity at 2.5 µM (CDK2/cyclinE(h)) [%],SMILES
79,50,48,95,110,102,CN1CCCC1CCNC(=O)c1cn2c3c(c(N4CCC(c5cnccn5)C4)c(F)cc3c1=O)Oc1cc3ccccc3cc1-2 (stereo not drawn) [Compound A-1]
99,94,107,99,108,117,CC(=O)N1CCN(c2ccc3c(=O)c(C(=O)NCCN4CCCC4)c4n(C)c5ccccc5n4c3n2)CC1 [Compound B-1]
